Experimental data: PMC5356695, “A phase 1 study of oral ridaforolimus in pediatric patients with advanced solid tumors” (Oncotarget, 2016)
Where two headings read alike, the source gives them in different places.

Test system: pediatric patients with advanced solid tumors
Conditions: for Leukopenia (treatment-related AE): laboratory values only
Method: This phase 1, multicenter, open-label study was conducted at a total of 8 study sites (3 study sites in the United States and 5 Innovative Therapies for Children with Cancer [ITCC] Consortium centers [2 in the United Kingdom and 3 in France]) between January 31, 2012, and the data cutoff, January 14, 2014 (ClinicalTrials.gov identifier NCT01431534; European Clinical Trials Database [EudraCT] number 2011-000729-55). An enteric-coated tablet formulation of ridaforolimus was orally administered for 5 consecutive days and not administered for 2 consecutive days per week in 28-day cycles until progression, unacceptable toxicity, or consent withdrawal. […] Dose escalation was conducted by using a modified toxicity probability intervals method that targeted a 30% DLT rate and started at 22 mg/m^2 (the equivalent of the adult RP2D [27], a 40-mg dose in adults with a BSA of 1.8 m^2). […] Dosing was adjusted based on BSA and rounded to the nearest 10-mg tablet. Patients were to be treated at sequentially rising dose levels until a preliminary MTD was identified.
Toxicity was graded according to the National Cancer Institute Common Terminology Criteria for Adverse Events, version 4.0 [42]. Safety data were reported for all patients who received at least 1 dose of the study drug. […] Once the RP2D of ridaforolimus was defined, an expansion cohort to be treated at the RP2D was planned to obtain additional safety, tolerability, and pharmacokinetic data.

CO[C@H]1C[C@@H]2CC[C@@H](C)[C@@](O)(O2)C(=O)C(=O)N2CCCC[C@H]2C(=O)O[C@H]([C@H](C)C[C@@H]2CC[C@@H](OP(C)(C)=O)[C@H](OC)C2)CC(=O)[C@H](C)/C=C(\C)[C@@H](O)[C@@H](OC)C(=O)[C@H](C)C[C@H](C)/C=C/C=C/C=C/1C [ridaforolimus]
Patients with serious adverse events related to study treatment (22 mg/m^2, grade 3 oral herpes): 1 patient
Stomatitis (treatment-related AE) (22 mg/m^2 n = 4, any grade): 2 (50) n (%)
Thrombocytopenia (treatment-related AE) (22 mg/m^2 n = 4, any grade): 2 (50) n (%)
Vomiting (treatment-related AE) (22 mg/m^2 n = 4, any grade): 1 (25) n (%)
Leukopenia (treatment-related AE) (22 mg/m^2 n = 4, any grade): 1 (25) n (%)
Anemia (treatment-related AE) (22 mg/m^2 n = 4, grades 3–4): 0 n (%)
Decreased appetite (treatment-related AE) (22 mg/m^2 n = 4, grades 3–4): 0 n (%)
Decreased weight (treatment-related AE) (22 mg/m^2 n = 4, grades 3–4): 0 n (%)
Diarrhea (treatment-related AE) (22 mg/m^2 n = 4, grades 3–4): 0 n (%)
Dry mouth (treatment-related AE) (22 mg/m^2 n = 4, grades 3–4): 0 n (%)
Dysgeusia (treatment-related AE) (22 mg/m^2 n = 4, grades 3–4): 0 n (%)
Epistaxis (treatment-related AE) (22 mg/m^2 n = 4, grades 3–4): 0 n (%)
Fatigue (treatment-related AE) (22 mg/m^2 n = 4, grades 3–4): 0 n (%)
Headache (treatment-related AE) (22 mg/m^2 n = 4, grades 3–4): 0 n (%)
Hypercholesterolemia (treatment-related AE) (22 mg/m^2 n = 4, grades 3–4): 0 n (%)
Hyperglycemia (treatment-related AE) (22 mg/m^2 n = 4, grades 3–4): 0 n (%)
Hypertriglyceridemia (treatment-related AE) (22 mg/m^2 n = 4, grades 3–4): 0 n (%)
Hypocalcemia (treatment-related AE) (22 mg/m^2 n = 4, grades 3–4): 0 n (%)
Hypokalemia (treatment-related AE) (22 mg/m^2 n = 4, grades 3–4): 0 n (%)
Hypophosphatemia (treatment-related AE) (22 mg/m^2 n = 4, grades 3–4): 1 (25) n (%)
Increased ALT (treatment-related AE) (22 mg/m^2 n = 4, grades 3–4): 1 (25) n (%)
Increased AST (treatment-related AE) (22 mg/m^2 n = 4, grades 3–4): 0 n (%)
Increased alkaline phosphatase (treatment-related AE) (22 mg/m^2 n = 4, grades 3–4): 0 n (%)
Increased bilirubin (treatment-related AE) (22 mg/m^2 n = 4, grades 3–4): 0 n (%)
Increased γ-glutamyltransferase (treatment-related AE) (22 mg/m^2 n = 4, grades 3–4): 0 n (%)
Lymphopenia (treatment-related AE) (22 mg/m^2 n = 4, grades 3–4): 0 n (%)
Nausea (treatment-related AE) (22 mg/m^2 n = 4, grades 3–4): 0 n (%)
Neutropenia (treatment-related AE) (22 mg/m^2 n = 4, grades 3–4): 0 n (%)
Oral herpes (treatment-related AE) (22 mg/m^2 n = 4, grades 3–4): 1 (25) n (%)
Patients with ≥1 treatment-related adverse event (22 mg/m^2 n = 4, grades 3–4): 2 (50) n (%)
Photophobia (treatment-related AE) (22 mg/m^2 n = 4, grades 3–4): 0 n (%)
Rash (treatment-related AE) (22 mg/m^2 n = 4, grades 3–4): 0 n (%)
Stomatitis (treatment-related AE) (22 mg/m^2 n = 4, grades 3–4): 0 n (%)
Thrombocytopenia (treatment-related AE) (22 mg/m^2 n = 4, grades 3–4): 0 n (%)
Vomiting (treatment-related AE) (22 mg/m^2 n = 4, grades 3–4): 0 n (%)
Leukopenia (treatment-related AE) (22 mg/m^2 n = 4, grades 3–4): 0 n (%)
Stomatitis (treatment-related AE) (28 mg/m^2 n = 3, any grade): 3 (100) n (%)
Thrombocytopenia (treatment-related AE) (28 mg/m^2 n = 3, any grade): 1 (33) n (%)
Vomiting (treatment-related AE) (28 mg/m^2 n = 3, any grade): 0 n (%)
Leukopenia (treatment-related AE) (28 mg/m^2 n = 3, any grade): 2 (67) n (%)
Anemia (treatment-related AE) (28 mg/m^2 n = 3, grades 3–4): 0 n (%)
Decreased appetite (treatment-related AE) (28 mg/m^2 n = 3, grades 3–4): 0 n (%)
Decreased weight (treatment-related AE) (28 mg/m^2 n = 3, grades 3–4): 0 n (%)
Diarrhea (treatment-related AE) (28 mg/m^2 n = 3, grades 3–4): 0 n (%)
Dry mouth (treatment-related AE) (28 mg/m^2 n = 3, grades 3–4): 0 n (%)
Dysgeusia (treatment-related AE) (28 mg/m^2 n = 3, grades 3–4): 0 n (%)
Epistaxis (treatment-related AE) (28 mg/m^2 n = 3, grades 3–4): 0 n (%)
Fatigue (treatment-related AE) (28 mg/m^2 n = 3, grades 3–4): 0 n (%)
Headache (treatment-related AE) (28 mg/m^2 n = 3, grades 3–4): 0 n (%)
Hypercholesterolemia (treatment-related AE) (28 mg/m^2 n = 3, grades 3–4): 1 (33) n (%)
Hyperglycemia (treatment-related AE) (28 mg/m^2 n = 3, grades 3–4): 0 n (%)
Hypertriglyceridemia (treatment-related AE) (28 mg/m^2 n = 3, grades 3–4): 0 n (%)
Hypocalcemia (treatment-related AE) (28 mg/m^2 n = 3, grades 3–4): 0 n (%)
Hypokalemia (treatment-related AE) (28 mg/m^2 n = 3, grades 3–4): 0 n (%)
Hypophosphatemia (treatment-related AE) (28 mg/m^2 n = 3, grades 3–4): 0 n (%)
Increased ALT (treatment-related AE) (28 mg/m^2 n = 3, grades 3–4): 1 (33) n (%)
Increased AST (treatment-related AE) (28 mg/m^2 n = 3, grades 3–4): 0 n (%)
Increased alkaline phosphatase (treatment-related AE) (28 mg/m^2 n = 3, grades 3–4): 0 n (%)
Increased bilirubin (treatment-related AE) (28 mg/m^2 n = 3, grades 3–4): 0 n (%)
Increased γ-glutamyltransferase (treatment-related AE) (28 mg/m^2 n = 3, grades 3–4): 0 n (%)
Lymphopenia (treatment-related AE) (28 mg/m^2 n = 3, grades 3–4): 0 n (%)
Nausea (treatment-related AE) (28 mg/m^2 n = 3, grades 3–4): 0 n (%)
Neutropenia (treatment-related AE) (28 mg/m^2 n = 3, grades 3–4): 0 n (%)
Oral herpes (treatment-related AE) (28 mg/m^2 n = 3, grades 3–4): 0 n (%)
Patients with ≥1 treatment-related adverse event (28 mg/m^2 n = 3, grades 3–4): 2 (67) n (%)
Photophobia (treatment-related AE) (28 mg/m^2 n = 3, grades 3–4): 0 n (%)
Rash (treatment-related AE) (28 mg/m^2 n = 3, grades 3–4): 0 n (%)
Stomatitis (treatment-related AE) (28 mg/m^2 n = 3, grades 3–4): 0 n (%)
Thrombocytopenia (treatment-related AE) (28 mg/m^2 n = 3, grades 3–4): 1 (33) n (%)
Vomiting (treatment-related AE) (28 mg/m^2 n = 3, grades 3–4): 0 n (%)
Leukopenia (treatment-related AE) (28 mg/m^2 n = 3, grades 3–4): 0 n (%)
Patients discontinued due to an adverse event (grade 5 gastric perforation related to underlying disease) (33 mg/m^2 (n = 13), 8%): 1 patients
Patients with DLT (grade 3 increased ALT) (33 mg/m^2, 18 patients evaluable for DLTs overall): 1 patient
Patients with serious adverse events related to study treatment (33 mg/m^2, grade 2 rectal pain, grade 2 seizure): 2 patients
Stomatitis (treatment-related AE) (33 mg/m^2 n = 13, any grade): 10 (77) n (%)
Thrombocytopenia (treatment-related AE) (33 mg/m^2 n = 13, any grade): 10 (77) n (%)
Vomiting (treatment-related AE) (33 mg/m^2 n = 13, any grade): 2 (15) n (%)
Leukopenia (treatment-related AE) (33 mg/m^2 n = 13, any grade): 4 (31) n (%)
Anemia (treatment-related AE) (33 mg/m^2 n = 13, grades 3–4): 0 n (%)
Decreased appetite (treatment-related AE) (33 mg/m^2 n = 13, grades 3–4): 0 n (%)
Decreased weight (treatment-related AE) (33 mg/m^2 n = 13, grades 3–4): 0 n (%)
Diarrhea (treatment-related AE) (33 mg/m^2 n = 13, grades 3–4): 0 n (%)
Dry mouth (treatment-related AE) (33 mg/m^2 n = 13, grades 3–4): 0 n (%)
Dysgeusia (treatment-related AE) (33 mg/m^2 n = 13, grades 3–4): 0 n (%)
Epistaxis (treatment-related AE) (33 mg/m^2 n = 13, grades 3–4): 0 n (%)
Fatigue (treatment-related AE) (33 mg/m^2 n = 13, grades 3–4): 0 n (%)
Headache (treatment-related AE) (33 mg/m^2 n = 13, grades 3–4): 0 n (%)
Hypercholesterolemia (treatment-related AE) (33 mg/m^2 n = 13, grades 3–4): 0 n (%)
Hyperglycemia (treatment-related AE) (33 mg/m^2 n = 13, grades 3–4): 0 n (%)
Hypertriglyceridemia (treatment-related AE) (33 mg/m^2 n = 13, grades 3–4): 1 (8) n (%)
Hypocalcemia (treatment-related AE) (33 mg/m^2 n = 13, grades 3–4): 0 n (%)
Hypokalemia (treatment-related AE) (33 mg/m^2 n = 13, grades 3–4): 0 n (%)
Hypophosphatemia (treatment-related AE) (33 mg/m^2 n = 13, grades 3–4): 0 n (%)
Increased ALT (treatment-related AE) (33 mg/m^2 n = 13, grades 3–4): 3 (23) n (%)
Increased AST (treatment-related AE) (33 mg/m^2 n = 13, grades 3–4): 1 (8) n (%)
